Data taken from ChEMBL document CHEMBL5634121, “Discovery of novel G9a/GLP covalent inhibitors for the treatment of triple-negative breast cancer” (Eur J Med Chem, 2023).
Calls of active or inactive are those of the source. The calls are words filed in the database; no cut-off is given here.

Legend:
4T1 = test: Antiproliferative activity against mouse 4T1 cells incubated for 3 to 5 days by MTT assay; format: functional, cell-based
MDA-MB-231 [1] = test: Antiproliferative activity against human MDA-MB-231 cells incubated for 3 to 5 days by MTT assay; format: functional, cell-based
[2] = target: T1, Histone-lysine N-methyltransferase EHMT2 (Homo sapiens) (UniProt Q96KQ7); test: Inhibition of G9a (unknown origin) at 1 uM by AlphaLISA immunodetection assay relative to control
T1 sequence (whole entry): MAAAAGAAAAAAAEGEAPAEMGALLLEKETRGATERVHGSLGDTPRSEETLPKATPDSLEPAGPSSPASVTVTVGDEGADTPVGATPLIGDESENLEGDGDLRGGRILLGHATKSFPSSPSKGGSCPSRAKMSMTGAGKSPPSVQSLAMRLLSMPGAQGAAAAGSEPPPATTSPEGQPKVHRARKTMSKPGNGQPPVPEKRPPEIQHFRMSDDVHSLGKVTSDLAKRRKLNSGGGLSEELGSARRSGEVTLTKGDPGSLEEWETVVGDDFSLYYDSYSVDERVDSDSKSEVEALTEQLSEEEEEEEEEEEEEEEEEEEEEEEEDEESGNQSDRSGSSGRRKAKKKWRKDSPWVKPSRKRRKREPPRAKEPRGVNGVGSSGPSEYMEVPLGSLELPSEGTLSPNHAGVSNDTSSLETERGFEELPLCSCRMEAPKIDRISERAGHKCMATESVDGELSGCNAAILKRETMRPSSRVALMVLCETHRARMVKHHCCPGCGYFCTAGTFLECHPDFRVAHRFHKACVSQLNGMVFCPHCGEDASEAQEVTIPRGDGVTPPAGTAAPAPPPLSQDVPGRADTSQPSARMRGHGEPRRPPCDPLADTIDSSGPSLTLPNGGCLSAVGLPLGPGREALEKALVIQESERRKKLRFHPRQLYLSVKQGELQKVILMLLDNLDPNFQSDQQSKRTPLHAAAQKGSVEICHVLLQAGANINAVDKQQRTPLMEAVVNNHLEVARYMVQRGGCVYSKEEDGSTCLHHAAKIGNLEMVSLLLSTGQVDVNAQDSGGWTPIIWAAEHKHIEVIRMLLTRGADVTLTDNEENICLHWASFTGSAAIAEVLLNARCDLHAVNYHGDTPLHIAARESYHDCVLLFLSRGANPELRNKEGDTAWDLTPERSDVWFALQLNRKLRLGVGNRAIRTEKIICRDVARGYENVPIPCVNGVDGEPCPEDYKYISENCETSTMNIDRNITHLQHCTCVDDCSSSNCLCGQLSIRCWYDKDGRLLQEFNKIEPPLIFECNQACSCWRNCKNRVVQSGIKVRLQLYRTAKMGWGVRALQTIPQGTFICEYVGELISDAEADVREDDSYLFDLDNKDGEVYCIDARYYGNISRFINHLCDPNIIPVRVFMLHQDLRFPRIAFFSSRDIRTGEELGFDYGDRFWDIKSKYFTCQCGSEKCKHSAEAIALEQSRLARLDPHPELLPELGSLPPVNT

[3] = target: T1, Histone-lysine N-methyltransferase EHMT2 (Homo sapiens); test: Inhibition of G9a (unknown origin)
[4] = target: T2, Histone-lysine N-methyltransferase EHMT1 (Homo sapiens) (UniProt Q9H9B1); test: Inhibition of GLP (unknown origin) at 1 uM
T2 sequence (whole entry): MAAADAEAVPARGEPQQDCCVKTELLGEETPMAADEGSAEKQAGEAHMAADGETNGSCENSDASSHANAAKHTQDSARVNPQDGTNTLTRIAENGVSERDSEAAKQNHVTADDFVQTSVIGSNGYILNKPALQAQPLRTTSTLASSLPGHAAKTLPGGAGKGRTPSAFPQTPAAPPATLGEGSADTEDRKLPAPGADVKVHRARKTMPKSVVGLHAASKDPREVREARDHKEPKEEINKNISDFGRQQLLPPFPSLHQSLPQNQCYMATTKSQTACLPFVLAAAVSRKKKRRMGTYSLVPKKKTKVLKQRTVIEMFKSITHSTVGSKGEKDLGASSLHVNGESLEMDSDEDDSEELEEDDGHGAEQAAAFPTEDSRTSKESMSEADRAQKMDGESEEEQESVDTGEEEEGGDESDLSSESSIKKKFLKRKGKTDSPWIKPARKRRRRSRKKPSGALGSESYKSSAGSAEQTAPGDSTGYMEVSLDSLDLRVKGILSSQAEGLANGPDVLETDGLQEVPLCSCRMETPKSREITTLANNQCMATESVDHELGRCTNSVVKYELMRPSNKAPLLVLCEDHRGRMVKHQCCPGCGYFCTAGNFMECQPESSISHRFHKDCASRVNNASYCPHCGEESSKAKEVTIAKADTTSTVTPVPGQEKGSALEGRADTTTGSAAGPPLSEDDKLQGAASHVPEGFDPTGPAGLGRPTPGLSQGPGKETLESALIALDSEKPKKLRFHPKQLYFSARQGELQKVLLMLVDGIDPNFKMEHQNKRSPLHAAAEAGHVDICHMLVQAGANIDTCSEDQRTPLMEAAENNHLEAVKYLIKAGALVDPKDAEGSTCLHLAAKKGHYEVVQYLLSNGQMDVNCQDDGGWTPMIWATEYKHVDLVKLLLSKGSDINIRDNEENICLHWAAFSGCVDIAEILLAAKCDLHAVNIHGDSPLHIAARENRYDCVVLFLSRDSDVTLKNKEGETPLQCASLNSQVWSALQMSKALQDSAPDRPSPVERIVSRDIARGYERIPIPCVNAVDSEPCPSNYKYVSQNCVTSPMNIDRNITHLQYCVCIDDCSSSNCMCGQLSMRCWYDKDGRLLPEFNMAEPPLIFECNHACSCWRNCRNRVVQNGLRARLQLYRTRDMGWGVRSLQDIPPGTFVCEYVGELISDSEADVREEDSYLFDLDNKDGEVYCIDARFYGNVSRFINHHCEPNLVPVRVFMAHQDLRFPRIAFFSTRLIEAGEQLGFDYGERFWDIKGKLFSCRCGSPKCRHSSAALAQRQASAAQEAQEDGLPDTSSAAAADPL

MDA-MB-231 [5] = test: Induction of apoptosis in human MDA-MB-231 cells assessed as late apoptotic cells at 20 uM incubated for 72 hrs by Annexin V and PI staining based flow cytometry analysis (reference value: 0.45 %); format: functional
MDA-MB-231 [6] = test: Induction of apoptosis in human MDA-MB-231 cells assessed as early apoptotic cells at 20 uM incubated for 72 hrs by Annexin V and PI staining based flow cytometry analysis (reference value: 0.92 %); format: functional
MDA-MB-231 [7] = test: Antiproliferative activity against human MDA-MB-231 cells assessed as cell growth inhibition at 20 uM incubated for 1 day followed by compound washout and measured after 1 to 4 days; format: functional, cell-based
MDA-MB-231 [8] = test: Inhibition of colony formation in human MDA-MB-231 cells at 1 to 10 uM refreshed every 4 days for 12 days by crystal violet staining based assay; format: functional, cell-based; settings: dose 1-10 µM, time 12.0 day
[9] = Cytotoxicity against human L02 cells assessed as reduction in cell viability incubated for 2 days by MTT assay; format: toxicity, cell-based
MDA-MB-231 [10] = test: Induction of apoptosis in human MDA-MB-231 cells assessed as necrotic cells at 20 uM incubated for 72 hrs by Annexin V and PI staining based flow cytometry analysis (reference value: 0.32 %); format: functional
[11] = target: T3, Histone-lysine N-methyltransferase EHMT1/EHMT2 (Homo sapiens) (UniProt Q9H9B1+Q96KQ7); test: Inhibition of G9a/GLP in human MDA-MB-231 cells assessed as reduction in H3K9 dimethylation at 20 uM incubated for 1 day followed by compound washout and measured after 1 to 4 days; format: cell-based
[12] = target: T3, Histone-lysine N-methyltransferase EHMT1/EHMT2 (Homo sapiens); test: Inhibition of G9a/GLP in human MDA-MB-231 cells assessed as reduction in H3K9 dimethylation incubated for 3 days by Western blotting analysis; format: cell-based; settings: dose 2.5-20 µM, time 3.0 day
MDA-MB-231 [13] = test: Antiproliferative activity against human MDA-MB-231 cells after 5 days by MTT assay; format: functional, cell-based; settings: MDA-MB-231, 120 h
MDA-MB-231 [14] = test: Induction of apoptosis in human MDA-MB-231 cells assessed as viable cells at 20 uM incubated for 72 hrs by Annexin V and PI staining based flow cytometry analysis (reference value: 98.31 %); format: functional; settings: read-out: Activity
[15] = target: T3, Histone-lysine N-methyltransferase EHMT1/EHMT2 (Homo sapiens); test: Inhibition of G9a/GLP in human MDA-MB-231 cells assessed as reduction in H3K9 dimethylation at 20 uM incubated for 3 days by Western blotting analysis; format: cell-based; settings: time 3.0 day
[16] = Mus musculus, 4T1, read-out: IC50

SMILES | IC50 (4T1; [16]) | IC50 (MDA-MB-231 [1]) | inhibition [2] | further results
C=CC(=O)Nc1cccc(-c2nc(NC3CCN(C(C)C)CC3)c3cc(OC)c(OC)cc3n2)c1 | 10.4 µM | 1.53 µM | 26% | 
CCC(=O)N1CCC=C(c2nc(NC3CCN(C)CC3)c3cc(OC)c(OC)cc3n2)C1 |  |  |  | inhibition [3]: inactive
COc1cc2c(NC3CCN(C(C)C)CC3)nc(N3CCC(F)(F)CC3)nc2cc1OCCCN1CCCC1 |  | 0.99 µM |  | Activity (MDA-MB-231 [5]): 16.69%; Activity (MDA-MB-231 [6]): 72.11%; IC50 (4T1; 4t1): 1.55 µM; Activity (MDA-MB-231 [7]): inactive; inhibition (MDA-MB-231 [8]): Active; IC50 at 2 days [9]: 6.99 µM; Activity (MDA-MB-231 [10]): 4.04%; inhibition [11]: inactive; inhibition [12]: Dose-Dependent Effect; IC50 (MDA-MB-231 [13]): 1 µM; viability at 20 µM (MDA-MB-231 [14]): 7.16%
C=CC(=O)N1CC=C(c2nc(NC3CCN(C(C)C)CC3)c3cc(OC)c(OC)cc3n2)C1 | 28.1 µM | 1.27 µM | 24% | 
COc1cc2nc(N3CCCN(C)CC3)nc(NC3CCN(Cc4ccccc4)CC3)c2cc1OC |  |  |  | IC50 at 2 days [9]: 4.28 µM
C=CC(=O)N1CCC=C(c2nc(NC3CCN(C(C)C)CC3)c3cc(OC)c(OC)cc3n2)C1 | 11.2 µM | 13.4 µM | 7% | 
C=CC(=O)N1CC=C(c2nc(NC3CCN(Cc4ccccc4)CC3)c3cc(OC)c(OC)cc3n2)C1 | 8.96 µM | 1.6 µM | 38% | 
CCC(=O)Nc1cccc(-c2nc(NC3CCN(C)CC3)c3cc(OC)c(OC)cc3n2)c1 |  |  |  | Activity (MDA-MB-231 [5]): 7.29%; Activity (MDA-MB-231 [6]): 8.69%; inhibition [15]: Active; Activity (MDA-MB-231 [7]): inactive; inhibition [3]: inactive; Activity (MDA-MB-231 [10]): 1.32%; viability at 20 µM (MDA-MB-231 [14]): 82.7%
CCC(=O)N1CC=C(c2nc(NC3CCN(C)CC3)c3cc(OC)c(OC)cc3n2)C1 |  |  |  | inhibition [3]: inactive
C=CC(=O)N1CC=C(c2nc(NC3CCN(C)CC3)c3cc(OC)c(OC)cc3n2)C1 | 10.4 µM | 0.89 µM | 98% | inhibition [4]: Active

The next lines start with results.

IC50 (4T1; [16]) | IC50 (MDA-MB-231 [1]) | inhibition [2] | SMILES | further results
8.94 µM | 3.52 µM | 98% | C=CC(=O)N1CCC=C(c2nc(NC3CCN(C)CC3)c3cc(OC)c(OC)cc3n2)C1 | inhibition [4]: Active
> 30 µM | > 30 µM |  | C=CC(=O)NC/C=C/c1nc(NC2CCN(C)CC2)c2cc(OC)c(OC)cc2n1 | 
28.6 µM | 10.5 µM |  | C=CC(=O)N1CCC=C(c2nc(NC3CCN(Cc4ccccc4)CC3)c3cc(OC)c(OC)cc3n2)C1 | 
17.6 µM | 2.07 µM | 60% | C=CC(=O)NC/C=C/c1nc(NC2CCN(Cc3ccccc3)CC2)c2cc(OC)c(OC)cc2n1 | 
25.6 µM | 18.3 µM |  | C=CC(=O)Nc1ccc(C)c(-c2nc(NC3CCN(C(C)C)CC3)c3cc(OC)c(OC)cc3n2)c1 | 
> 30 µM | 2.26 µM | 56% | C=CC(=O)NC/C=C/c1nc(NC2CCN(C(C)C)CC2)c2cc(OC)c(OC)cc2n1 | 
